Reference: BindingDB's records for doi:10.1016/j.bmc.2008.05.048 (University of Canterbury, 2008)

Target: T1, Calpain-2 catalytic subunit (Ovis aries, UniProt A8IF71)
T1 sequence (A8IF71 whole entry): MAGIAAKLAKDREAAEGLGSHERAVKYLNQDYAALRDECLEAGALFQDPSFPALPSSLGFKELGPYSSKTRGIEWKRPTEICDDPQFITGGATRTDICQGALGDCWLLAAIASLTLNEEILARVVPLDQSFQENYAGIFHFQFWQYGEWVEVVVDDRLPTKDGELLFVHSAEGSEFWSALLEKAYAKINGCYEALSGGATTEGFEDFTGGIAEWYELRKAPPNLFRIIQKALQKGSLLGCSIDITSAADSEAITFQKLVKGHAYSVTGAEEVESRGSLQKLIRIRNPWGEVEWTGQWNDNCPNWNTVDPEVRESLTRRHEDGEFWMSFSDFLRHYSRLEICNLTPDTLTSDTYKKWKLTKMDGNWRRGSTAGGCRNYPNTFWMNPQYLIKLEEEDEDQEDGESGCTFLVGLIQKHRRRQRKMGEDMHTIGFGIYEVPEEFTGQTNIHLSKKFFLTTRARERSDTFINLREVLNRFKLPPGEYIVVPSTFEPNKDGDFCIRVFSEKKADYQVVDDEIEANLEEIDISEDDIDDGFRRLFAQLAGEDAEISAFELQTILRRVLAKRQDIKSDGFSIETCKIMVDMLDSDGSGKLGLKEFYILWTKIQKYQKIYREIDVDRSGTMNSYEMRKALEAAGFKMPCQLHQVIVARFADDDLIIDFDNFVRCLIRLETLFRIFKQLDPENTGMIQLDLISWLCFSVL
Experiment: BODIPY Fluorescent Microplate Assay
Details: pH 7.5; 25 °C
Experimental: Calpain inhibition assays were performed in 96-well black plates. The reaction was initiated by the addition of substrate solution. The progress of the reaction was followed for 10 min in a (BMG) Fluorostar with excitation at 485 nm and emission at 530 nm. The percentage inhibition was determined as […]. The reported IC50 values are the average of triplicate determinations.

IC50, 100 nM:
CC(C)C[C@@H](C=O)NC(=O)[C@@H](NC(=O)c1cc(C=O)c[nH]1)C(C)C [(2S)-2-[(4-formyl-1H-pyrrol-2-yl)formamido]-3-methyl-N-[(2S)-4-methyl-1-oxopentan-2-yl]butanamide]
CC(C)C[C@@H](C=O)NC(=O)[C@@H](NC(=O)c1ccc(C=O)o1)C(C)C [(2S)-2-[(5-formylfuran-2-yl)formamido]-3-methyl-N-[(2S)-4-methyl-1-oxopentan-2-yl]butanamide]
CC(C)C[C@@H](C=O)NC(=O)[C@@H](NC(=O)c1cccs1)C(C)C [(2S)-3-methyl-N-[(2S)-4-methyl-1-oxopentan-2-yl]-2-(thiophen-2-ylformamido)butanamide]
